This note sets out measurements from ChEMBL document CHEMBL1201862, “PubChem BioAssay data set” (2004).

Some test systems named below: SF-539; OVCAR-4; Hs-578T; SK-MEL-2; K562; HCC 2998; MOLT-4; SNB-19; UACC-62; T47D; EKVX; HT-29; NCI-H23; SF-268; 786-0; MCF7; COLO 205; NCI-H522; SN12C; RPMI-8226.
What all share (experiment): DTP human tumour cell line panel, 48 h

Structures are written as SMILES.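 Exposure lasted 48 hours, with cells grown in 96-well plates and compounds tested at five concentrations. The concentration for 50% growth inhibition is given as GI50.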 Calls of active or inactive are those of the source. Rule as the data show it: active = GI50 up to about 1.1 µM and inactive = higher.

By GI50 is commonly meant the concentration that inhibits growth by half. As to `COCN1C(=O)[C@@H]2CCCN2C(=O)c2ccc([N+](=O)[O-])cc21`, the GI50 with SF-539, in the test with OVCAR-4, in the test on Hs-578T, with SK-MEL-2, in the test on K562 and in the test with HCC 2998 was > 100 µM (inactive) in each case. Also, the GI50 with MOLT-4, in the test on SNB-19, in the test on UACC-62, in the test on T47D, with EKVX and in the test on HT-29 was > 100 µM (inactive) each time. Further, the GI50 with NCI-H23, in the test with SF-268, in the test with 786-0, with MCF7, in the test on COLO 205 and with NCI-H522 was > 100 µM (inactive) each time. Besides, the GI50 with SN12C and in the test with RPMI-8226 was > 100 µM (inactive) in each case.

Regarding `C=C(C)C(=O)OC1CC2(C)OC2CC(OC(C)=O)/C(C)=C/C2OC(=O)C(=C)C21` (stereo not given), the GI50 is 2.82 µM (inactive) with SF-539; 9.48 µM (inactive) in the test on OVCAR-4; 2.3 µM (inactive) in the test with Hs-578T; 5.37 µM (inactive) in the test on SK-MEL-2; 0.56 µM (active) with K562; 6.34 µM (inactive) with HCC 2998. Also, the GI50 in the test with MOLT-4 is 0.441 µM (active); in the test on SNB-19 it was 15.2 µM (inactive); in the test with UACC-62 it was 4.57 µM (inactive); in the test with T47D, 3.48 µM (inactive); with EKVX it was 3.1 µM (inactive); in the test on HT-29 it was 1.31 µM (inactive). In addition, the GI50 in the test with NCI-H23 is 2.76 µM (inactive); in the test with SF-268, 2.12 µM (inactive); with 786-0, 2.22 µM (inactive); in the test on MCF7, 2.33 µM (inactive); in the test with COLO 205, 1.52 µM (inactive); in the test with NCI-H522 it was 0.124 µM (active). Moreover, the GI50 is 2.52 µM (inactive) in the test on SN12C and 0.349 µM (active) with RPMI-8226.

Take `CCN(CC)c1ccc(/C=C(\C#N)c2nc(N)nc(N3N=C(C)CC3(C)C)n2)cc1`: the GI50 in the test on SF-539 is 6.89 µM (inactive); in the test on OVCAR-4, 11.6 µM (inactive); in the test with Hs-578T, 2.4 µM (inactive); in the test with SK-MEL-2 it was 15.6 µM (inactive); with K562, > 38.1 µM (inactive); with HCC 2998 it was 30.1 µM (inactive). For the same compound, the GI50 is 10.7 µM (inactive) in the test with MOLT-4; 17.9 µM (inactive) in the test on SNB-19; 30.3 µM (inactive) in the test on UACC-62; 17.2 µM (inactive) in the test with T47D; 24.4 µM (inactive) in the test on EKVX; 18.8 µM (inactive) with HT-29. The GI50 in the test on NCI-H23 was 27.5 µM (inactive); in the test with SF-268, 15 µM (inactive); with 786-0 it was 13.4 µM (inactive); in the test on MCF7, 32 µM (inactive); in the test with COLO 205 it was 29.6 µM (inactive); with NCI-H522, 16.9 µM (inactive). Moreover, the figures for the GI50 with SN12C and in the test on RPMI-8226 were 27.3 µM (inactive) and 32 µM (inactive), respectively.

`COC(CN(C)C(=S)Nc1cccc2ccccc12)OC`: the GI50 in the test on SF-539, in the test with OVCAR-4, in the test with Hs-578T, with SK-MEL-2, in the test on K562 and in the test with HCC 2998 was > 10 µM (inactive) in each case. The GI50 in the test with MOLT-4, with SNB-19, with UACC-62, in the test with T47D, in the test on EKVX and with HT-29 was > 10 µM (inactive) in each case. Besides, the GI50 in the test on NCI-H23, with SF-268, in the test on 786-0, with MCF7, in the test on COLO 205 and in the test with NCI-H522 was > 10 µM (inactive) each time. Further, the GI50 in the test with SN12C and in the test on RPMI-8226 was > 10 µM (inactive) in each case.

`COc1cc(-c2cc(=O)c3c(O)c(OC)c(OC)c(OC)c3o2)cc(OC)c1OC` [GARDENIN]: the GI50 in the test with SF-539 is 17.1 µM (inactive); with OVCAR-4, > 100 µM (inactive); with Hs-578T, 3.15 µM (inactive); in the test with SK-MEL-2, > 55.6 µM (inactive); with K562 it was > 100 µM (inactive); in the test with HCC 2998, 22.5 µM (inactive). The GI50 was > 100 µM (inactive) with MOLT-4; 10.7 µM (inactive) in the test with SNB-19; 32.4 µM (inactive) in the test on UACC-62; 10.2 µM (inactive) in the test with T47D; 22.3 µM (inactive) in the test on EKVX; > 100 µM (inactive) with HT-29. Besides, the GI50 with NCI-H23 is 15.1 µM (inactive); with SF-268, 8.71 µM (inactive); with 786-0, 3.72 µM (inactive); with MCF7 it was > 100 µM (inactive); with COLO 205, > 100 µM (inactive); with NCI-H522, 9.55 µM (inactive). The figures for the GI50 with SN12C and in the test on RPMI-8226 were 3.94 µM (inactive) and > 44.7 µM (inactive), respectively.

In the case of `CC(C)=CCc1c2c(c3occ(-c4ccc(O)c(O)c4)c(=O)c3c1O)C=CC(C)(C)O2` [POMIFERIN], the GI50 in the test on SF-539 is 1.91 µM (inactive); in the test on OVCAR-4, 1.59 µM (inactive); in the test with Hs-578T, 1.22 µM (inactive); in the test with SK-MEL-2, 2.6 µM (inactive); in the test on K562 it was 2.29 µM (inactive); in the test with HCC 2998, 1.22 µM (inactive). Further, the 50% growth inhibitory concentration (GI50) is 0.553 µM (active) in the test on MOLT-4; 1.96 µM (inactive) in the test with SNB-19; 3.85 µM (inactive) with UACC-62; 1.86 µM (inactive) with T47D; 4.86 µM (inactive) with EKVX; 1.84 µM (inactive) in the test on HT-29. For the same compound, the GI50 in the test with NCI-H23 is 1.57 µM (inactive); with SF-268 it was 1.87 µM (inactive); in the test on 786-0, 1.51 µM (inactive); in the test with MCF7, 1.34 µM (inactive); with COLO 205, 1.78 µM (inactive); with NCI-H522 it was 0.188 µM (active). Moreover, the GI50 in the test on SN12C was 1.58 µM (inactive); in the test with RPMI-8226, 1.67 µM (inactive).
